The values below are quoted from earlier work in patent US20180203025A1, “HDL THERAPY MARKERS” (Cerenis Therapeutics Holding SA, priority 2014, published 2018).

Read-outs that look alike come from different tables or passages of the source.

For data set [1] the following is noted: associated to statin; cited from earlier work.
The conditions of data set [2]: ACS patients, cited from earlier work.
The conditions of data set [3]: added to 80 mg atorvastatin, cited from earlier work.
The conditions of data set [4]: compared to atorvastatin; cited from earlier work.

Regarding `Cc1cc(C)c2c(c1)[C@@H](N(Cc1cc(C(F)(F)F)cc(C(F)(F)F)c1)c1nnn(C)n1)CCCN2C[C@H]1CC[C@H](C(=O)O)CC1` [evacetrapib], the “further decrease of LDL-cholesterol” value in data set [1] is recorded as “about 40%”.

On to `CCC(CC)CC1(C(=O)Nc2ccccc2SC(=O)C(C)C)CCCCC1` [dalcetrapib], for which, in data set [2], the ApoA-I increase is 18%, the HDL-cholesterol increase entry is given as “about 30%” and the LDL-cholesterol entry was “no changes in LDL-cholesterol”. For the same compound, the “clinical benefit compared to placebo” value in data set [2] (interim analysis) was “no benefit”. Also, in data set [1], the LDL-cholesterol entry is listed as “remains unchanged”.

`CCOC(=O)N1c2ccc(C(F)(F)F)cc2[C@@H](N(Cc2cc(C(F)(F)F)cc(C(F)(F)F)c2)C(=O)OC)C[C@H]1CC` [torcetrapib]: in data set [3] (compared to Atorvastatin alone), the HDL-cholesterol increase is given as 80% and the LDL-cholesterol decrease is reported as 25%. Moreover, in data set [3] (15 067 patients), the mortality and morbidity entry is “increase of the mortality and morbidity”. Besides, the “further decrease of LDL-cholesterol” value in data set [1] is reported as “about 40%”.

As for `COc1cc(F)c(C(C)C)cc1-c1ccc(C(F)(F)F)cc1CN1C(=O)O[C@H](c2cc(C(F)(F)F)cc(C(F)(F)F)c2)[C@@H]1C` [anacetrapib], in data set [4], the HDL-cholesterol increase entry is listed as “about 140%” and the LDL-cholesterol lowering is recorded as 40%. For the same compound, the “further decrease of LDL-cholesterol” value in data set [1] is “about 40%”.
